Source: ChEMBL document CHEMBL4052759, “Discovery of DS79182026: A potent orally active hepcidin production inhibitor” (Bioorg Med Chem Lett, 2017)
One block for each molecule: values may come before it.

Legend:
[1] = target: T1, cGMP-dependent protein kinase 1 (Homo sapiens) (UniProt Q13976); assay: Inhibition of PKG-alpha (unknown origin) at 0.078 uM relative to control
T1 sequence (whole entry): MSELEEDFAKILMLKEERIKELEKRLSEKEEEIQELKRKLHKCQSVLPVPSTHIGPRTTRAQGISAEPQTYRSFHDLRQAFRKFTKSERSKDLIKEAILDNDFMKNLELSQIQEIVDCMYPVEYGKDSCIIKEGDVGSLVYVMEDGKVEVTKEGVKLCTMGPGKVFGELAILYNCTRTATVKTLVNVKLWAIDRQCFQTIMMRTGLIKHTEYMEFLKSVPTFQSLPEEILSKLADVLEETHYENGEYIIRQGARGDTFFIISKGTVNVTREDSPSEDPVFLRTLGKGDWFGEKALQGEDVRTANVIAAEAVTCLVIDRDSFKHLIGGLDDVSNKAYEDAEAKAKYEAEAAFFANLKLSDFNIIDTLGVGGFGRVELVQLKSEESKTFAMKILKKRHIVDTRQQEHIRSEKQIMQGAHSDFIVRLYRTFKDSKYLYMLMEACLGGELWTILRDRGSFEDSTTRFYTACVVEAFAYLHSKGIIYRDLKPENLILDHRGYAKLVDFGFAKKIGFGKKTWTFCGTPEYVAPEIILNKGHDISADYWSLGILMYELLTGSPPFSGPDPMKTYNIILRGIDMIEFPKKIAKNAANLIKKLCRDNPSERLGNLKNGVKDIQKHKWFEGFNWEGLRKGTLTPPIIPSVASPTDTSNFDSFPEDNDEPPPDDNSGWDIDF

[2] = target: Serine/threonine-protein kinase Chk2 (Homo sapiens) (UniProt O96017); assay: Inhibition of CHK2 (unknown origin) at 0.078 uM relative to control
Chain of Serine/threonine-protein kinase Chk2 (Homo sapiens) (O96017 whole entry): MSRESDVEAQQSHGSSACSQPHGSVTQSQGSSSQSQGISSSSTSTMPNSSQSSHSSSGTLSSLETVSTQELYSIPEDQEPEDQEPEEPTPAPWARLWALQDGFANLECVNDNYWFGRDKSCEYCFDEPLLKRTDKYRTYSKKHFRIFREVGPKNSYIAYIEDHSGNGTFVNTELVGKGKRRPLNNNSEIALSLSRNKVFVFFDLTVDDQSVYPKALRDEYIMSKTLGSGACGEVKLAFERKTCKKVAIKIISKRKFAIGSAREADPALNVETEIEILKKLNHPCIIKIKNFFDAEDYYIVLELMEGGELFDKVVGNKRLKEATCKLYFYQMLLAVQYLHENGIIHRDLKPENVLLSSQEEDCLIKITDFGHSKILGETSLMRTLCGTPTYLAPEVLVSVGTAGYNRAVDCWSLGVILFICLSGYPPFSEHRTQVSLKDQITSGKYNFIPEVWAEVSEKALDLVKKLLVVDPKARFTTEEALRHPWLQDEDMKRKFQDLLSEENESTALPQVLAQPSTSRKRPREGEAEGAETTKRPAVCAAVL

[3] = target: Fibroblast growth factor receptor 2 (Homo sapiens) (UniProt P21802); assay: Inhibition of FGFR2 (unknown origin) at 0.49 uM relative to control
Chain of Fibroblast growth factor receptor 2 (Homo sapiens) (P21802 22-821 limits assumed): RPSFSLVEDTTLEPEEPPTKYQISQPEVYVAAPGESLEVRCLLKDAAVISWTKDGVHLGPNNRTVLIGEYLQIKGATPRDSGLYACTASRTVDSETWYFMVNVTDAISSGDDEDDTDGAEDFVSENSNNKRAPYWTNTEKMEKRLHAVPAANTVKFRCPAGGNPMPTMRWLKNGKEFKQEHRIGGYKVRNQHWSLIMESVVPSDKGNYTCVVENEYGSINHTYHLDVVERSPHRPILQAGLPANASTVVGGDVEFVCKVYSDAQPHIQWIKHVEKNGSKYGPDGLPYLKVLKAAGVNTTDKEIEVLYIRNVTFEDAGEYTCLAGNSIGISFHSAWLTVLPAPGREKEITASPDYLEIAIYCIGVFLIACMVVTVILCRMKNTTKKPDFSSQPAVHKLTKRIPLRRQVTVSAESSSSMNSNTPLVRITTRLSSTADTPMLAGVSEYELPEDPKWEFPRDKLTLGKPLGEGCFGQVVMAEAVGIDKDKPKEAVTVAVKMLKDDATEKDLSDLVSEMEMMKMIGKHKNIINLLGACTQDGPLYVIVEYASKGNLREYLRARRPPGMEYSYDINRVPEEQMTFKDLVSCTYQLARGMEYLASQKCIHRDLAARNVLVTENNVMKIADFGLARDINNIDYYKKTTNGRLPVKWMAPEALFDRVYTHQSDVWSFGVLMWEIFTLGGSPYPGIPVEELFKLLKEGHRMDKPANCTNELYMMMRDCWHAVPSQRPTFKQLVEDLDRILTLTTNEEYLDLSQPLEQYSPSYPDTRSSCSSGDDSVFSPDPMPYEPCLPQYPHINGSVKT

[4] = target: RAC-beta serine/threonine-protein kinase (Homo sapiens) (UniProt P31751); assay: Inhibition of AKT2 (unknown origin) at 0.49 uM relative to control
Chain of RAC-beta serine/threonine-protein kinase (Homo sapiens) (P31751 whole entry): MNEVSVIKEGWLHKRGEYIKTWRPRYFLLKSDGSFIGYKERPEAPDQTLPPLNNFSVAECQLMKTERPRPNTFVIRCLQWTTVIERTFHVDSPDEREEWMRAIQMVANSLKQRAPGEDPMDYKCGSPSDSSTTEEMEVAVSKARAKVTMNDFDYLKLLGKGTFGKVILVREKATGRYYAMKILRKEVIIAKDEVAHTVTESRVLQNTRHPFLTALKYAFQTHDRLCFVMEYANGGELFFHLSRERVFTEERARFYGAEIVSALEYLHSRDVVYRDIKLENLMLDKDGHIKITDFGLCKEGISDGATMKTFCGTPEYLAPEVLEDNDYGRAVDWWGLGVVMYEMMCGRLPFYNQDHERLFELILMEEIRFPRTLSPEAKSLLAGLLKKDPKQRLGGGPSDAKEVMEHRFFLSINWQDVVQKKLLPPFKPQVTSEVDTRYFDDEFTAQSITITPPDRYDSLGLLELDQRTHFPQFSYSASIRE

[5] = target: T1, cGMP-dependent protein kinase 1 (Homo sapiens); assay: Inhibition of PKG-alpha (unknown origin) at 0.49 uM relative to control
[6] = target: Cyclin-dependent kinase 2 (Homo sapiens) (UniProt P24941); assay: Inhibition of CDK2 (unknown origin) at 0.49 uM relative to control
[7] = target: STE20-like serine/threonine-protein kinase (Homo sapiens) (UniProt Q9H2G2); assay: Inhibition of SLK (unknown origin) at 0.49 uM relative to control
[8] = target: Serine/threonine-protein kinase PAK 5 (Homo sapiens) (UniProt Q9P286); assay: Inhibition of PAK5 (unknown origin) at 0.49 uM relative to control
Chain of Serine/threonine-protein kinase PAK 5 (Homo sapiens) (Q9P286 whole entry, looked up): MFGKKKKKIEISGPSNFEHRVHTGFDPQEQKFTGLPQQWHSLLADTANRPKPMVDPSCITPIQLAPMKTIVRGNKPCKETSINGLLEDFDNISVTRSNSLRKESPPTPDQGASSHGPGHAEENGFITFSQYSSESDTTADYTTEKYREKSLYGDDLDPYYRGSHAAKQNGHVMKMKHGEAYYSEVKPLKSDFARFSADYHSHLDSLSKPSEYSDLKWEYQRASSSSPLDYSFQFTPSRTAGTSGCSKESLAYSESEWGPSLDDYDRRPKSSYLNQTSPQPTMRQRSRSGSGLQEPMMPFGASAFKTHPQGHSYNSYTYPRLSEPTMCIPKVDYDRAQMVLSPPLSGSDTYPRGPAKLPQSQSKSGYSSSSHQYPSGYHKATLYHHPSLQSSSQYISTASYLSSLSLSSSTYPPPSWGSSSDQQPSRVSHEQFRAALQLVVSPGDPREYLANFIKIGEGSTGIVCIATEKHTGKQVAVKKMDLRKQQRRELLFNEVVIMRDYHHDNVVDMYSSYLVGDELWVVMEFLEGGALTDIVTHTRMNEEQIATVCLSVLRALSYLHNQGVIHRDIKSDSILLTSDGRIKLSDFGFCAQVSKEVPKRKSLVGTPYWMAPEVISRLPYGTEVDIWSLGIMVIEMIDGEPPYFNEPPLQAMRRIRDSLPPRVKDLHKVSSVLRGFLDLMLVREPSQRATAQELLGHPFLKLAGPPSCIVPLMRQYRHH

[9] = system: Fibroblast growth factor receptor 2 (Homo sapiens), P21802 [N549H]; assay: Inhibition of FGFR2 N549H mutant (unknown origin) at 0.49 uM
[10] = target: Phosphorylase b kinase gamma catalytic chain, skeletal muscle/heart isoform (Homo sapiens) (UniProt Q16816); assay: Inhibition of PhKg1 (unknown origin) at 0.49 uM relative to control
Chain of Phosphorylase b kinase gamma catalytic chain, skeletal muscle/heart isoform (Homo sapiens) (Q16816 whole entry, looked up, canonical isoform): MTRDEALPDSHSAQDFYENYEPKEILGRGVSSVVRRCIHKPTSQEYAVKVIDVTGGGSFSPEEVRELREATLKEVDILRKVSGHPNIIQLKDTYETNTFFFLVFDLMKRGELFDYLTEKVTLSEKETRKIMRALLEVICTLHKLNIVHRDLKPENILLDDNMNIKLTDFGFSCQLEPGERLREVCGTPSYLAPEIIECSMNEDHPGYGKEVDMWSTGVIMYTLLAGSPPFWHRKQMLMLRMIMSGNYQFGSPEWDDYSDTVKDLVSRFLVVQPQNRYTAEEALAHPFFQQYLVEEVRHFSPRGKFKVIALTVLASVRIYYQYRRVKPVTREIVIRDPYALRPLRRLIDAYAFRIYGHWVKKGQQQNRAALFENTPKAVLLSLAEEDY

[11] = target: Ephrin type-A receptor 5 (Homo sapiens) (UniProt P54756); assay: Inhibition of EPHA5 (unknown origin) at 0.49 uM relative to control
[12] = target: Insulin-like growth factor 1 receptor (Homo sapiens) (UniProt P08069); assay: Inhibition of IGF1R (unknown origin) at 0.45 uM relative to control
[13] = target: Ephrin type-A receptor 8 (Homo sapiens) (UniProt P29322); assay: Inhibition of EPHA8 (unknown origin) at 0.45 uM relative to control
Chain of Ephrin type-A receptor 8 (Homo sapiens) (P29322 whole entry): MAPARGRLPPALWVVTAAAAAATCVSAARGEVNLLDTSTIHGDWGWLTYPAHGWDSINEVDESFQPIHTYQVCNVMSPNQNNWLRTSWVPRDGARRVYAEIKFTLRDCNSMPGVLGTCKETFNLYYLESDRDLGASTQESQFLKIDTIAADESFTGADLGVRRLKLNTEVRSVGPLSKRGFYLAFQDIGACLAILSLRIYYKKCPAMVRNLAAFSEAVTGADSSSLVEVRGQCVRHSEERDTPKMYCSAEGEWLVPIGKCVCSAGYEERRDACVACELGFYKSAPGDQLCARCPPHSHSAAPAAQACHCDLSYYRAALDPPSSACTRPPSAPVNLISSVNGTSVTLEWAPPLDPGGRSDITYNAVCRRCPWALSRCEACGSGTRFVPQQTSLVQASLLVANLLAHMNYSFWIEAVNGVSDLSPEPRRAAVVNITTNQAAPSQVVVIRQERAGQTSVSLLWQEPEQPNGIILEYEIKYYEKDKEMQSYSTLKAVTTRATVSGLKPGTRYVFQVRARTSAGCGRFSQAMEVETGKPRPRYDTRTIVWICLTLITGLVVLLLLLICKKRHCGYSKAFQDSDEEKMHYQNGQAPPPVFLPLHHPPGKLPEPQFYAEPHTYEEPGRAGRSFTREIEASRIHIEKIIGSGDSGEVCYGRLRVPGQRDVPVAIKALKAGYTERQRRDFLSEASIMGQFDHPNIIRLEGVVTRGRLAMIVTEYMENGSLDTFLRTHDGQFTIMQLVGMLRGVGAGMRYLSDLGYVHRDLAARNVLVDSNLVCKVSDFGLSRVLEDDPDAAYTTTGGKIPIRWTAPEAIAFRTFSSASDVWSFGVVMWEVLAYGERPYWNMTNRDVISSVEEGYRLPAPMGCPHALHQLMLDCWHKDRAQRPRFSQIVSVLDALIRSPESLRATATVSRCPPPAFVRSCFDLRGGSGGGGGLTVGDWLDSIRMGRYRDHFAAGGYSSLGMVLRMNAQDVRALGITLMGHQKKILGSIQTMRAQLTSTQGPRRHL

[14] = target: Death-associated protein kinase 1 (Homo sapiens) (UniProt P53355); assay: Inhibition of DAPK1 (unknown origin) at 0.45 uM relative to control
[15] = target: MAP kinase-activated protein kinase 3 (Homo sapiens) (UniProt Q16644); assay: Inhibition of MAPKAPK3 (unknown origin) at 0.45 uM relative to control
[16] = target: Serine/threonine-protein kinase PAK 2 (Homo sapiens) (UniProt Q13177); assay: Inhibition of PAK2 (unknown origin) at 0.45 uM relative to control
Chain of Serine/threonine-protein kinase PAK 2 (Homo sapiens) (Q13177 whole entry): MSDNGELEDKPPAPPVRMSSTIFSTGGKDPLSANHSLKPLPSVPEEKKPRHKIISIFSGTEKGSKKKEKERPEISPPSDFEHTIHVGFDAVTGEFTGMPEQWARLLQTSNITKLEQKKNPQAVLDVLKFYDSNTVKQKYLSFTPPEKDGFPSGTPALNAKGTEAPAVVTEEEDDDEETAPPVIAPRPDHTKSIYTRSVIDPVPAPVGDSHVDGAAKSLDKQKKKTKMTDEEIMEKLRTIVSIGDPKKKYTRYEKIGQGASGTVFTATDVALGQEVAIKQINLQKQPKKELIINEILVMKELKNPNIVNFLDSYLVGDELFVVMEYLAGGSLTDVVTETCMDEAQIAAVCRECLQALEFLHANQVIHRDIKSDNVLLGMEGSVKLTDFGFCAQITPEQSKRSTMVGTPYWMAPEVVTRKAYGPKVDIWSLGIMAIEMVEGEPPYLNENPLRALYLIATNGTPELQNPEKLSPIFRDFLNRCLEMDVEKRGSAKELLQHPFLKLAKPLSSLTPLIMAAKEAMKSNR

[17] = target: T2, Serine/threonine-protein kinase 3 (Homo sapiens) (UniProt Q13188); assay: Inhibition of MST2 (unknown origin) at 0.45 uM relative to control
T2 sequence (whole entry): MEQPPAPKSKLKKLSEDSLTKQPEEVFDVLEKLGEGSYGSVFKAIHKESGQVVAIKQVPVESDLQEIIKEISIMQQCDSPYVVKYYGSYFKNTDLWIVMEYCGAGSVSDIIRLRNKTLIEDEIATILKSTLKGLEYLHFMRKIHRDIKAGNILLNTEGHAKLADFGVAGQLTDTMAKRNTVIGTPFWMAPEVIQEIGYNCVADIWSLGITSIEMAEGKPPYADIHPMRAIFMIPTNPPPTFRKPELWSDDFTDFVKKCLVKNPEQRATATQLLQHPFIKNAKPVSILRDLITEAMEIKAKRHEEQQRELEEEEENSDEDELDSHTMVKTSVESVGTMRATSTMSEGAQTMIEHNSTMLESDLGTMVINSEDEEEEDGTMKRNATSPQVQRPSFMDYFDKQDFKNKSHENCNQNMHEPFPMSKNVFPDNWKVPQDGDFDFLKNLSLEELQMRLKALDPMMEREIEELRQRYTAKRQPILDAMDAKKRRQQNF

[18] = target: Cyclin-dependent kinase 3 (Homo sapiens) (UniProt Q00526); assay: Inhibition of CDK3 (unknown origin) at 0.45 uM relative to control
Chain of Cyclin-dependent kinase 3 (Homo sapiens) (Q00526 whole entry, looked up): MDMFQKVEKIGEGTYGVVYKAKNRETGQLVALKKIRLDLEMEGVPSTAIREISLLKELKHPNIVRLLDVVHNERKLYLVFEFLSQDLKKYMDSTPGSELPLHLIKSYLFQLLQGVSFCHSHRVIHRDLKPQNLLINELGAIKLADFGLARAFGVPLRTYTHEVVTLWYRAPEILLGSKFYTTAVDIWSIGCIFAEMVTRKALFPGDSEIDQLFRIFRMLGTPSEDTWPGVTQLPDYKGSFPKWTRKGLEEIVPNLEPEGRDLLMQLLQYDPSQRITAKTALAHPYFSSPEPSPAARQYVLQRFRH

[19] = target: Mitogen-activated protein kinase 12 (Homo sapiens) (UniProt P53778); assay: Inhibition of p38-gamma (unknown origin) at 0.45 uM relative to control
[20] = target: Protein kinase C theta type (Homo sapiens) (UniProt Q04759); assay: Inhibition of PKC-theta (unknown origin) at 0.45 uM relative to control

inhibition [1]: -3.3%
inhibition [2]: 0.7%
Compound: COC(=O)Nc1noc2cc(-c3c(-c4ccccn4)n[nH]c3C)ccc12

inhibition [3]: -0.7%
inhibition [4]: 3%
inhibition [5]: 0%
inhibition [6]: 1.3%
inhibition [7]: 4.7%
inhibition [8]: -1%
inhibition [9]: 0%
inhibition [10]: 2.3%
inhibition [11]: 3%
Compound: Cc1[nH]nc(C2CC2)c1-c1ccc2c(NC(=O)C3CC3)noc2c1

inhibition [12]: 3%
inhibition [13]: 3.7%
inhibition [15]: 4%
inhibition [16]: -2.7%
inhibition [17]: 1.7%
inhibition [18]: 7.3%
inhibition [19]: 0%
inhibition [20]: 3%
Compound: Cc1n[nH]c(C)c1-c1ccc2c(NC(=O)c3ccc(N4CCN(C)CC4)cc3)n[nH]c2c1
inhibition [14]: -1.3%
